Measured values: patent publication US20230339952A1, “MACROCYCLIC HETEROCYCLES AND USES THEREOF” (Kumquat Biosciences Inc., priority 2022, published 2023)
One block for each compound: values may come before it.

Columns and labels:
SOS1 = SOS1 (Homo sapiens (Human), UniProt Q07889); assay: Ras-SOS interaction assay (HTRF), K-Ras G13D utilized; assay type: binding; conditions: K-Ras G13D, read-out: SOS1 IC50
Source text: For example, the equilibrium interaction of human SOS1 (hSOS1) with human wildtype Kras or K-Ras mutant (e.g., hK-Ras G12C mutant, or hK-Ras G12C) can be assessed as a proxy or an indication for a subject compound's ability to inhibit SOS. Detection of such interaction is achieved by measuring homogenous time-resolved fluorescence resonance energy transfer (HTRF) from (i) a fluorescence resonance energy transfer (FRET) donor (e.g., antiGST-Europium) that is bound to GST-tagged K-Ras G12C to (ii) a FRET acceptor (e.g., anti-6His-XL665) bound to a His-tagged hSOS1.
A Ras working solution is prepared in assay buffer containing typically 10 nM of the protein construct (e.g., GST-tagged hK-Ras G12C) and 2 nM of the FRET donor (e.g., antiGST-Eu(K) from Cisbio, France). A SOS1 working solution is prepared in assay buffer containing typically 10 nM of the protein construct (e.g., His-hSOS1) and 10 nM of the FRET acceptor (e.g., anti-6His-XL665 from Cisbio, France). An inhibitor control solution is prepared in assay buffer containing 10 nM of the FRET acceptor without the SOS1 protein.
A fixed reaction mixture with or without test compound is transferred into a 384-well plate. Ras working solution is added to all wells of the test plate. SOS1 working solution is added to all wells except for those that are subsequently filled with the inhibitor control solution. […] The ratiometric data (i.e., emission 2 divided by emission 1) is used to calculate IC50 values against SOS1 using GraphPad Prism (GraphPad software).

[1] = tested on: NCI-H1975 (ATCC CRL-5908) cell line comprising an EGFR T790M L858R double mutation; assay: EGFR-SOS cellular inhibition assay (CellTiter-Glo cell proliferation); assay type: cell-based; conditions: Homo sapiens, 120 h; NCI-H1975 cell proliferation, approximately 5 days; read-out: H1975 IC50
Protocol: A CellTiter-Glo (CTG) luminescent based assay (Promega) is used to assess growth of the cells, as a measurement of the ability of the compounds herein to inhibit EGFR signaling in the cells. […] The day after plating, cells are treated with a dilution series (e.g., a 9 point 3-fold dilution series) of the compounds herein (e.g., approximately 125 μL final volume per well).

SOS1, sequence (Q07889 564-1049): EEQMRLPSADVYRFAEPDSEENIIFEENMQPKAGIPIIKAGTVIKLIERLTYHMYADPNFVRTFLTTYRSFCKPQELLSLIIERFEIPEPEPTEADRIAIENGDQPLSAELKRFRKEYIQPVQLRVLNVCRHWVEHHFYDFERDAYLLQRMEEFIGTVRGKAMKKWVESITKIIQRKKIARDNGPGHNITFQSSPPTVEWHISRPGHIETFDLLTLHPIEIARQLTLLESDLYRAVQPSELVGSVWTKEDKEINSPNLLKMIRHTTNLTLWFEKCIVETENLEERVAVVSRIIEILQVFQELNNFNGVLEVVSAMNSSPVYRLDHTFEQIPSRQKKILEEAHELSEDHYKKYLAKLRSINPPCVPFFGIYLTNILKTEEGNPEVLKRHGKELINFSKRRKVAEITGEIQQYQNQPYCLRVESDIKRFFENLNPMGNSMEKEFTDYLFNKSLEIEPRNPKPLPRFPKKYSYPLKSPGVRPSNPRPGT

SMILES: Cc1nc2c3cc(C4(C#N)CC4)c(=O)n(c3n1)CC/C=C\COCC(F)(F)c1cccc(c1F)[C@@H](C)N2 [Compound 3, 1-((3R,Z)-4^2,5,5-trifluoro-1^2,3-dimethyl-1^7-oxo-1^7,1^8-dihydro-7-oxa-2-aza-1(4,8)-pyrido[2,3-d]pyrimidina-4(1,3)-benzenacyclododecaphan-9-en-1^6-yl)cyclopropane-1-carbonitrile]
- IC50 (SOS1): 100 to 5000 nM
- IC50 [1]: 1000 to 10000 nM

SMILES: C[C@H]1Nc2ncnc3c2cc(C2(C#N)CC2)c(=O)n3CCCCCCN2CCC(CC2)CC(F)(F)c2cccc1c2F [Compound 15, 1-((3R)-4^2,5,5-trifluoro-3-methyl-1^7-oxo-1^7,1^8-dihydro-2-aza-1(4,8)-pyrido[2,3-d]pyrimidina-7(4,1)-piperidina-4(1,3)-benzenacyclotridecaphane-1^6-yl)cyclopropane-1-carbonitrile]
- IC50 (SOS1): < 100 nM
- IC50 [1]: < 1000 nM

SMILES: CC(C)N1CCN(c2cc3c4ncnc3n(c2=O)CCCCCCN2CCC(CC2)CC(F)(F)c2cccc(c2F)[C@@H](C)N4)CC1 [Compound 16, (3R)-4^2,5,5-trifluoro-1^6-(4-isopropylpiperazin-1-yl)-3-methyl-1^7,1^8-dihydro-2-aza-1(4,8)-pyrido[2,3-d]pyrimidina-7(4,1)-piperidina-4(1,3)-benzenacyclotridecaphan-1^7-one]
- IC50 (SOS1): < 100 nM
- IC50 [1]: < 1000 nM

SMILES: C[C@H]1Nc2ncnc3c2cc(N2CCN(C4CCOCC4)CC2)c(=O)n3CCCCCCCN2CCC(CC2)C(F)(F)c2cccc1c2F [Compound 19, (4R)-3^2,2,2-trifluoro-4-methyl-6^6-(4-(tetrahydro-2H-pyran-4-yl)piperazin-1-yl)-6^7,68-dihydro-5-aza-6(4,8)-pyrido[2,3-d]pyrimidina-1(4,1)-piperidina-3(1,3)-benzenacyclotridecaphan-6^7-one]
- IC50 (SOS1): < 100 nM
- IC50 [1]: < 1000 nM

SMILES: CC1CCCCCn2c(=O)c(C3(C#N)CC3)cc3c(ncnc32)N[C@H](C)c2cccc(c2F)C(F)(F)C2CCN(CC2)C1 (stereo partly drawn) [Compound 20, 1-((4R)-3^2,2,2-trifluoro-4,12-dimethyl-6^7-oxo-6^7,6^8-dihydro-5-aza-6(4,8)-pyrido[2,3-d]pyrimidina-1(4,1)-piperidina-3(1,3)-benzenacyclotridecaphane-6^6-yl)cyclopropane-1-carbonitrile]
- IC50 (SOS1): < 100 nM
- IC50 [1]: < 1000 nM

SMILES: CC(C)N1CCN(c2cc3c4ncnc3n(c2=O)CCCCCCCN2CCC(CC2)C(F)(F)c2cccc(c2F)[C@@H](C)N4)CC1 [Compound 21, (4R)-3^2,2,2-trifluoro-6^6-(4-isopropylpiperazin-1-yl)-4-methyl-6^7,6^8-dihydro-5-aza-6(4,8)-pyrido[2,3-d]pyrimidina-1(4,1)-piperidina-3(1,3)-benzenacyclotridecaphan-6^7-one]
- IC50 (SOS1): < 100 nM
- IC50 [1]: < 1000 nM

SMILES: CC1CC/C=C\CCn2c(=O)c(C3(C#N)CC3)cc3c(ncnc32)N[C@H](C)c2cccc(c2)C(F)(F)C2CCN1CC2 (stereo partly drawn) [Compound 100, 1-((4R,Z)-2,2-difluoro-4,13-dimethyl-6^7-oxo-6^7,6^8-dihydro-5-aza-6(4,8)-pyrido[2,3-d]pyrimidina-1(4,1)-piperidina-3(1,3)-benzenacyclotridecaphan-9-en-6^6-yl)cyclopropane-1-carbonitrile]
- IC50 [1]: < 1000 nM

SMILES: COc1cc2nc(C)nc3c2cc1OCCCCOCCOCCOCCNCc1ccccc1C1=CC=C(S1)C(C)N3 (stereo not shown) [Compound 150, 5^7-methoxy-5^2,3-dimethyl-6,11,14,17-tetraoxa-4,20-diaza-5(4,6)-quinazolina-2(2,5)-thiophena-1(1,2)-benzenacyclohenicosaphane]
- IC50 (SOS1): 100 to 5000 nM

SMILES: C[C@H]1Nc2ncnc3c2cc(C2CCS(=O)(=O)CC2)c(=O)n3CCCOCCCN2CCC(CC2)CC(F)(F)c2cccc1c2 [Compound 194, (3R)-1^6-(1,1-dioxidotetrahydro-2H-thiopyran-4-yl)-5,5-difluoro-3-methyl-1^7,1^8-dihydro-11-oxa-2-aza-1(4,8)-pyrido[2,3-d]pyrimidina-7(4,1)-piperidina-4(1,3)-benzenacyclotetradecaphan-1^7-one]
- IC50 (SOS1): < 100 nM

SMILES: Cc1nnc2c3cc(N4CCOCC4)cc(c13)OCCCCCCN1CCC(CC1)C(F)(F)c1cccc(c1)[C@@H](C)N2 [Compound 196, (R)-2,2-difluoro-6^4,4-dimethyl-6^7-morpholino-7-oxa-5-aza-6(1,5)-phthalazina-1(4,1)-piperidina-3(1,3)-benzenacyclotridecaphane]
- IC50 (SOS1): < 100 nM

Continued, values first:

- IC50 (SOS1): < 100 nM
- IC50 [1]: < 1000 nM
SMILES: C[C@H]1Nc2ncnc3c2cc(C2(C#N)CCS(=O)(=O)CC2)c(=O)n3CCCCCN2CCC(CC2)CCC(F)(F)c2cccc1c2 [Compound 8, 4-((3R)-5,5-difluoro-3-methyl-1^7-oxo-1^7,1^8-dihydro-2-aza-1(4,8)-pyrido[2,3-d]pyrimidina-8(4,1)-piperidina-4(1,3)-benzenacyclotridecaphane-1^6-yl)tetrahydro-2H-thiopyran-4-carbonitrile 1,1-dioxide]

- IC50 (SOS1): < 100 nM
- IC50 [1]: < 1000 nM
SMILES: C[C@H]1Nc2ncnc3c2cc(C2(C#N)CC2)c(=O)n3CCCNC(=O)CCN2CCC(CC2)C(F)(F)c2cccc1c2F [Compound 11, 1-((4R)-3^2,2,2-trifluoro-4-methyl-6^7,11-dioxo-6^7,6^8-dihydro-5,10-diaza-6(4,8)-pyrido[2,3-d]pyrimidina-1(4,1)-piperidina-3(1,3)-benzenacyclotridecaphane-6^6-yl)cyclopropane-1-carbonitrile]

- IC50 (SOS1): 100 to 5000 nM
- IC50 [1]: < 1000 nM
SMILES: Cc1nc2c3cc(C4CCS(=O)(=O)CC4)c(=O)n(c3n1)CCCC/C=C\CC(C)(O)C(F)(F)c1cccc(c1)[C@@H](C)N2 (stereo partly drawn) [Compound 12, (3R,Z)-1^6-(1,1-dioxidotetrahydro-2H-thiopyran-4-yl)-5,5-difluoro-6-hydroxy-1^2,3,6-trimethyl-1^7,1^8-dihydro-2-aza-1(4,8)-pyrido[2,3-d]pyrimidina-4(1,3)-benzenacyclotridecaphan-8-en-1^7-one]

- IC50 (SOS1): < 100 nM
SMILES: C[C@H]1Nc2ncnc3cc(c(N4CCS(=O)(=O)CC4)cc23)OCCCCOCCCN2CCC(CC2)C(F)(F)c2cccc1c2 [Compound 192, (R)-4-(2,2-difluoro-4-methyl-7,12-dioxa-5-aza-6(4,7)-quinazolina-1(4,1)-piperidina-3(1,3)-benzenacyclopentadecaphane-6^6-yl)thiomorpholine 1,1-dioxide]

- IC50 (SOS1): < 100 nM
SMILES: C[C@H]1Nc2ncnc3c(cc(N4CCS(=O)(=O)CC4)cc23)OCCCCCCN2CCC(CC2)C(F)(F)c2cccc1c2 [Compound 193, (R)-4-(2,2-difluoro-4-methyl-7-oxa-5-aza-6(4,8)-quinazolina-1(4,1)-piperidina-3(1,3)-benzenacyclotridecaphane-6^6-yl)thiomorpholine 1,1-dioxide]

- IC50 (SOS1): < 100 nM
SMILES: CC(C)N1CCN(c2cc3c4ncnc(c4c2)N[C@H](C)c2cccc(c2)C(F)(F)C2CCN(CCCCCCO3)CC2)CC1 [Compound 195, (R)-2,2-difluoro-6^6-(4-isopropylpiperazin-1-yl)-4-methyl-7-oxa-5-aza-6(4,8)-quinazolina-1(4,1)-piperidina-3(1,3)-benzenacyclotridecaphane]
